Laboratory results taken from patent US20250034135A1, “ANTI-APOPTOTIC PROTEIN BCL-2 INHIBITOR, PHARMACEUTICAL COMPOSITION AND USES THEREOF” (HANGZHOU HEALZEN THERAPEUTICS CO., LTD., priority 2021, published 2025).

Target: BCL2 (Homo sapiens (Human), UniProt P10415)
Assay: Molecular level activity test of anti-apoptotic protein BCL2 (HTRF, binding to Bim peptide)
Details: HTRF, binding of BCL2 to Bim peptide; read-out: BCL2 nM (inhibitory activity, IC50)
Outline: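 Signal comes from proximity of anti-His-labelled BCL2 and streptavidin-XL665-bound biotin-BIM peptide. Test compounds, added in 2% DMSO, were preincubated with protein and peptide for one hour; detection reagents then incubated four hours at room temperature before reading.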

BCL2, sequence (P10415 whole entry): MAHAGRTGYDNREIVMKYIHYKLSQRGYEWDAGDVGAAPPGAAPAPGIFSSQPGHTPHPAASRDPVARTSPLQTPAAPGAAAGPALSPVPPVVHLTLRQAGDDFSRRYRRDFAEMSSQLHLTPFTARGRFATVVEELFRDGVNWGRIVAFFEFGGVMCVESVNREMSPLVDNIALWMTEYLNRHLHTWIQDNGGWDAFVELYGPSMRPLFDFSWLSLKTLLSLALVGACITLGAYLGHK

SMILES	IC50
CC(C)c1ccccc1[C@@H]1CCCN1C1CC2(CCN(c3cc(Oc4cnc5[nH]ccc5c4)c(C(=O)NS(=O)(=O)c4cc([N+](=O)[O-])c(NC[C@H]5CC[C@](C)(O)CC5)c5c4CCO5)cc3F)CC2)C1 [compound 100, 2-((1H-pyrrolo[2,3-b]pyrid-5-yl)oxy)-5-fluoro-N-((7-((((1r, 4r)-4-hydroxy-4-methylcyclohexyl)methyl)amino)-6-nitro-2,3-dihydrobenzofuran-4-yl)sulfonyl)-4-(2-((S)-2-(2-isopropylphenyl)pyrrolidin-1-yl)-7-azaspiro[3.5]non-7-yl)benzamide]	< 10 nM
CC(C)c1ccccc1[C@@H]1CCCN1C1CC2(CCN(c3cc(Oc4cnc5[nH]ccc5c4)c(C(=O)NS(=O)(=O)c4cc([N+](=O)[O-])c(NCC5(F)CCOCC5)c5c4OCO5)cc3F)CC2)C1 [compound 101, (S)-2-((1H-pyrrolo[2,3-b]pyrid-5-yl)oxy)-5-fluoro-N-((7-(((4-fluorotetrahydro-2H-pyran-4-yl)methyl)amino)-6-nitrobenzo[d][1,3]dioxocyclopent-4-yl)sulfonyl)-4-(2-(2-(2-isopropylphenyl)pyrrolidin-1-yl)-7-azaspiro[3.5]non-7-yl)benzamide]	< 10 nM
CC(C)c1ccccc1[C@@H]1CCCN1C1CC2(CCN(c3cc(Oc4cnc5[nH]ccc5c4)c(C(=O)NS(=O)(=O)c4cc([N+](=O)[O-])c(NCC5(F)CCOCC5)c5occc45)cc3F)CC2)C1 [compound 102, (S)-2-((1H-pyrrolo[2,3-b]pyrid-5-yl)oxy)-5-fluoro-N-((7-(((4-fluorotetrahydro-2H-pyran-4-yl)methyl)amino)-6-nitrobenzofuran-4-yl)sulfonyl)-4-(2-(2-(2-isopropylphenyl)pyrrolidin-1-yl)-7-azaspiro[3.5]non-7-yl)benzamide]	< 10 nM
CC(C)c1ccccc1[C@@H]1CCCN1C1CC2(CCN(c3cc(Oc4cnc5[nH]ccc5c4)c(C(=O)NS(=O)(=O)c4cc([N+](=O)[O-])c(NCC5(F)CCOCC5)c5ocnc45)cc3F)CC2)C1 [compound 103, (S)-2-((1H-pyrrolo[2,3-b]pyrid-5-yl)oxy)-5-fluoro-N-((7-(((4-fluorotetrahydro-2H-pyran-4-yl)methyl)amino)-6-nitrobenzo[d]oxazol-4-yl)sulfonyl)-4-(2-(2-(2-isopropylphenyl)pyrrolidin-1-yl)-7-azaspiro[3.5]non-7-yl)benzamide]	< 10 nM
CC(C)c1ccccc1[C@@H]1CCCN1C1CC2(CCN(c3cc(Oc4cnc5[nH]ccc5c4)c(C(=O)NS(=O)(=O)c4cc([N+](=O)[O-])c(NCC5(F)CCOCC5)c5scnc45)cc3F)CC2)C1 [compound 104, (S)-2-((1H-pyrrolo[2,3-b]pyrid-5-yl)oxy)-5-fluoro-N-((7-(((4-fluorotetrahydro-2H-pyran-4-yl)methyl)amino)-6-nitrobenzo[d]thiazol-4-yl)sulfonyl)-4-(2-(2-(2-isopropylphenyl)pyrrolidin-1-yl)-7-azaspiro[3.5]non-7-yl)benzamide]	< 10 nM
CC(C)c1ccccc1[C@@H]1CCCN1C1CC2(CCN(c3cc(Oc4cnc5[nH]ccc5c4)c(C(=O)NS(=O)(=O)c4cc([N+](=O)[O-])c(NCC5(F)CCOCC5)c5c4CCO5)cc3F)CC2)C1 [compound 105, (S)-2-((1H-pyrrolo[2,3-b]pyrid-5-yl)oxy)-5-fluoro-N-((7-(((4-fluorotetrahydro-2H-pyran-4-yl)methyl)amino)-6-nitro-2,3-dihydrobenzofuran-4-yl)sulfonyl)-4-(2-(2-(2-isopropylphenyl)pyrrolidin-1-yl)-7-azaspiro[3.5]non-7-yl)benzamide]	< 10 nM
